Values of other authors in US20220143046A1, “COMPOSITION AND METHODS FOR RECTAL DELIVERY OF 4-AAPA AND 5-ASA COMPOUNDS” (9 METERS BIOPHARMA, INC., priority 2019, published 2022).

Details: oral formulation; two Phase 1 clinical trials for mild to moderate ulcerative colitis

Question: For `O=C(O)Cc1ccc(/N=N/c2ccc(O)c(C(=O)O)c2)cc1` [INN-108, 5-(4-carboxymethyl-phenylazo)-2-hydroxybenzoic acid], which systemic absorption is on record?
Answer: no evidence of systemic absorption
